Test results: the supplement of paper PMC4932681

Tests used:
T-47D [1] = test: drug sensitivity score (DSS) (DSS (dimensionless)); higher = more sensitive; extreme values may be limits of the assay; conditions: 72 h
Procedure, shortened: (§1)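 Breast cancer cell lines and their resistant derivatives were seeded into 384-well plates containing library drugs at five concentrations across a 10 000-fold range, with resistant lines kept in medium with 1 μM of the selecting drug. After 72 h at 37 °C, CellTiter-Glo viability was read on a PHERAstar and normalised to vehicle-only and positive controls. Logistic dose–response fits in the Breeze pipeline gave drug sensitivity score, relative IC50 (curve midpoint) and top-dose inhibition.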

MCF-7 [2] = test: as above; conditions: 72 h
Procedure, shortened: as §1

BT-474 Tam2 [3] = test: as above; conditions: 4-OH-tamoxifen in medium 1 µM; 72 h
Procedure, shortened: as §1

ZR-75-1 Tam1 [4] = test: as above; conditions: 4-OH-tamoxifen in medium 1 µM; 72 h
Procedure, shortened: as §1

ZR-75-1 Tam2 [5] = test: as above; conditions: 4-OH-tamoxifen in medium 1 µM; 72 h
Procedure, shortened: as §1

MCF-7 Tam1 = test: as above; conditions: 4-OH-tamoxifen in medium 1 µM; 72 h
Procedure, shortened: as §1

T-47D Tam2 [6] = test: as above; conditions: 4-OH-tamoxifen in medium 1 µM; 72 h
Procedure, shortened: as §1

T-47D Tam1 [7] = test: as above; conditions: 4-OH-tamoxifen in medium 1 µM; 72 h
Procedure, shortened: as §1

BT-474 [8] = test: as above; conditions: 72 h
Procedure, shortened: as §1

ZR-75-1 [9] = test: as above; conditions: 72 h
Procedure, shortened: as §1

BT-474 Tam1 [10] = test: as above; conditions: 4-OH-tamoxifen in medium 1 µM; 72 h
Procedure, shortened: as §1

BT-474 Tam2 [11] = test: relative IC50 (midpoint of fitted logistic curve, plateau may be below 50% inhibition; CellTiter-Glo viability); higher = less potent; conditions: 4-OH-tamoxifen in medium 1 µM; 72 h
Procedure, shortened: as §1

ZR-75-1 Tam1 [12] = test: as above; conditions: 4-OH-tamoxifen in medium 1 µM; 72 h
Procedure, shortened: as §1

ZR-75-1 Tam2 [13] = test: as above; conditions: 4-OH-tamoxifen in medium 1 µM; 72 h
Procedure, shortened: as §1

T-47D Tam2 [14] = test: as above; conditions: 4-OH-tamoxifen in medium 1 µM; 72 h
Procedure, shortened: as §1

T-47D Tam1 [15] = test: as above; conditions: 4-OH-tamoxifen in medium 1 µM; 72 h
Procedure, shortened: as §1

BT-474 [16] = test: as above; conditions: 72 h
Procedure, shortened: as §1

ZR-75-1 [17] = test: as above; conditions: 72 h
Procedure, shortened: as §1

T-47D [18] = test: as above; conditions: 72 h
Procedure, shortened: as §1

MCF-7 [19] = test: as above; conditions: 72 h
Procedure, shortened: as §1

BT-474 Tam1 [20] = test: as above; conditions: 4-OH-tamoxifen in medium 1 µM; 72 h
Procedure, shortened: as §1

SMILES	drug sensitivity score (T-47D [1]; 4-OH-tamoxifen in medium 0 µM)	drug sensitivity score (T-47D [1]; 4-OH-tamoxifen in medium 1 µM)	drug sensitivity score (MCF-7 [2]; 4-OH-tamoxifen in medium 0 µM)	drug sensitivity score (MCF-7 [2]; 4-OH-tamoxifen in medium 1 µM)	drug sensitivity score (BT-474 Tam2 [3])	drug sensitivity score (ZR-75-1 Tam1 [4])	drug sensitivity score (ZR-75-1 Tam2 [5])	drug sensitivity score (MCF-7 Tam1)	drug sensitivity score (T-47D Tam2 [6])	drug sensitivity score (T-47D Tam1 [7])	drug sensitivity score (BT-474 [8]; 4-OH-tamoxifen in medium 0 µM)	drug sensitivity score (BT-474 [8]; 4-OH-tamoxifen in medium 1 µM)	drug sensitivity score (ZR-75-1 [9]; 4-OH-tamoxifen in medium 0 µM)	drug sensitivity score (ZR-75-1 [9]; 4-OH-tamoxifen in medium 1 µM)	drug sensitivity score (BT-474 Tam1 [10])	relative IC50 (BT-474 Tam2 [11]) [µM]	relative IC50 (ZR-75-1 Tam1 [12]) [µM]	relative IC50 (ZR-75-1 Tam2 [13]) [µM]	relative IC50 (T-47D Tam2 [14]) [µM]	relative IC50 (T-47D Tam1 [15]) [µM]	relative IC50 (BT-474 [16]; 4-OH-tamoxifen in medium 1 µM) [µM]	relative IC50 (ZR-75-1 [17]; 4-OH-tamoxifen in medium 0 µM) [µM]	relative IC50 (T-47D [18]; 4-OH-tamoxifen in medium 0 µM) [µM]	relative IC50 (T-47D [18]; 4-OH-tamoxifen in medium 1 µM) [µM]	relative IC50 (MCF-7 [19]; 4-OH-tamoxifen in medium 0 µM) [µM]	relative IC50 (BT-474 [16]; 4-OH-tamoxifen in medium 0 µM) [µM]	relative IC50 (ZR-75-1 [17]; 4-OH-tamoxifen in medium 1 µM) [µM]	relative IC50 (BT-474 Tam1 [20]) [µM]	relative IC50 (MCF-7 [19]; 4-OH-tamoxifen in medium 1 µM) [µM]
COc1cc(Nc2ncc3c(n2)-c2ccc(Cl)cc2C(c2c(F)cccc2OC)=NC3)ccc1C(=O)O [Alisertib (MLN8237)]	3.12	0.856	0.284	0	0	0	0	0.522	4.18	3.59	0.464	1.48	0	0	0.0274	> 10	> 10	> 10	0.821	1.05	3.45	> 10							
COc1cc([C@@H]2c3cc4c(cc3[C@@H](O[C@@H]3O[C@@H]5CO[C@@H](c6cccs6)O[C@H]5[C@H](O)[C@H]3O)[C@H]3COC(=O)[C@H]23)OCO4)cc(OC)c1O [Teniposide]	9.21	4.79	4.14	2.91	0.0097	3.15	5.1	0.273	4.73	8.66	4.07	6.48	4.91	3.3	3.14		1.6	0.737	1.11	0.995	2.23	0.703	0.306	0.697	2.13	2.13	1.07	3.45	
N#Cc1ccc(COC[C@H]2O[C@@H](n3c(NCc4ccc(Cl)c(Cl)c4)nc4c(N)ncnc43)[C@H](O)[C@@H]2O)cc1	1.88	1.02	1.74	2.54	3.17	2.54	2.56	0.584	2.46	5.15	0.615	4.11	4.24	4.03	3.95	1.73	3	3.35	2	1.17	2.75	2.07	3.59		4.19		1.87	1.92	3.25
CCNC(=O)c1noc(-c2cc(C(C)C)c(O)cc2O)c1-c1ccc(CN2CCOCC2)cc1 [NVP-AUY922]	14.3	14.1	16.7	7.64	16.8	6.14	9.04	3.94	13.5	8.46	14.7	26.5	6.75	7.06	22.9	0.0102	0.0225	0.0211	0.0104	0.0372	0.00225	0.0186	0.0199	0.00893	0.00659	0.00412	0.0404	0.0035	0.0412
